Measurements: patent US20180249707A1, “METHOD OF CONTROLLING ALGAE IN A BODY OF WATER” (priority 2013, published 2018)

Test system: M. aeruginosa UTEX 2385
Experiment: MIC 96-well microtiter plate assay in BG-11, 10 days
Format: cell-based, Microcystis aeruginosa
Conditions: for In vivo chlorophyll a of M. aeruginosa: 10 days, initial 0.1 ug/L
Description: MICs for the samples against M. aeruginosa were determined in a standard 96-well microtiter plate assay in BG-11 with a starting inoculum of ˜1×10^5 cells/mL. Algae plates were incubated for 10 days. MIC concentrations were determined visually, in vivo chlorophyll a was determined fluorometrically, and cell density was determined via direct counting. Samples were tested in duplicate.

CCCCCCCCCCCCN.Cl [1-dodecylammonium chloride]
In vivo chlorophyll a of M. aeruginosa (0.031 active ppm): 7.20 µg/L | In vivo chlorophyll a of M. aeruginosa (0.063 active ppm): 4.65 µg/L | In vivo chlorophyll a of M. aeruginosa (0.125 active ppm): 2.05 µg/L | In vivo chlorophyll a of M. aeruginosa (0.25 active ppm): 0.15 µg/L | In vivo chlorophyll a of M. aeruginosa (0.5 active ppm): 0.00 µg/L | MIC (Microcystis aeruginosa, UTEX2385, 240 h, determined visually, 10 days incubation, read-out: MIC values per individual sample, M. aeruginosa): 0.25 µg/mL
